Assay results reported in patent EP0734206B1, “SURFACTANTS PROVIDING ENHANCED EFFICACY AND/OR RAINFASTNESS TO PESTICIDE FORMULATIONS” (MONSANTO COMPANY, priority 1993, dated 1995).

How the values were obtained:
[1] = tested on: Panicum maximum (guineagrass, PANMA); test: greenhouse test of rainfastness of glyphosate formulations (Example 4); type: in vivo; settings: 1.68 kg a.e./ha, formulation 18.4% glyphosate a.e., 7% cocoamine quat 2EO, 10.2% nonionic surfactant
Procedure: (§1) Comparative herbicidal activity with and without simulated rain was determined in greenhouse and field tests. For greenhouse tests, seeds or propagules of selected species were planted in 10.2 cm square pots of soil with added fertilizer. Temperature and relative humidity were allowed to fluctuate within limits defined for each test described in the following Examples. Plants were allowed to grow until the desired growth stage or size (defined for each test) for spraying. Pots were selected for uniformity before treatment and three replicate pots were assigned to each treatment. Spray solutions were prepared by dilution or dissolution of concentrate herbicide formulations in water. When desired to test "tank mix" application of surfactant compositions, these were added to the spray solution at the required concentration. Spraying was performed with a device which simulates agricultural field spraying equipment, delivering a fine spray at a pressure of about 207 kilopascals. Speed of travel of the spray device over the plants was adjusted to give the desired spray volume (defined for each test). For logistical reasons, all three replicates of each treatment were sprayed together. "Rain" treatments were applied by repeated passage of a coarse spray of water over the plants at some desired period of time after herbicide spraying. The amount and duration of "rain" were noted. After spraying and "rain" treatment, the plants were returned to the greenhouse. Herbicidal efficacy was evaluated by visual assessment at one or more selected time periods after treatment and recorded as "percent control" on an arbitrary scale by comparison with untreated plants. On this scale 0 means no visible effect and 100 means death of all plants. In the Examples, percent control values given are the means of three replicates.
Aqueous concentrate formulations of the isopropylamine salt of glyphosate were prepared at a glyphosate a.e. loading of 18.4% (equivalent to about 200 g a.e./liter). All contained 7% cocoamine quat 2EO and 10.2% nonionic surfactant. Formulations of the present invention contained as the nonionic one of several secondary alcohol ethoxylates; other formulations were made containing nonionics such as Silwet L-77, 2,4,7,9-tetramethyl-5-decyne-4,7-diol 10EO, nonylphenol 8EO, 10EO and 12EO and C12-15 primary alcohol 7EO, 9EO and 12EO. These formulations were tested for rainfastness in a greenhouse test.
The test species was Panicum maximum (guineagrass, PANMA). All glyphosate formulations were applied at 1.68 kg a.e./ha (1.5 lb a.e./acre) in a spray volume of 185 l/ha (20 gallons/acre). Commercial Roundup herbicide was included as a standard. Simulated rain was applied in the amount of 6 mm over a period of 15 minutes, beginning 1 hour after glyphosate treatment.

[2] = tested on: Elymus repens (quackgrass, AGRRE); test: greenhouse test of rainfastness of glyphosate formulations (Example 5); type: in vivo; settings: formulation 31% glyphosate a.e., 7.5% cocoamine quat 2EO, 8.6% nonionic surfactant
Procedure: as §1
Aqueous concentrate formulations of the isopropylamine salt of glyphosate were prepared at a glyphosate a.e. loading of 31% (equivalent to about 360 g a.e./liter). All contained 7.5% cocoamine quat 2EO and 8.6% nonionic surfactant. Formulations of the present invention contained as the nonionic C11-15 secondary alcohol 9EO or C12 branched secondary alcohol 10EO; for comparison, other formulations were made containing nonionics disclosed as rainfastness aids in the prior art such as 2,4,7,9-tetramethyl-5-decyne-4,7-diol 10EO or nonylphenol 8EO. These formulations were tested for rainfastness in a greenhouse test.
The test species was Elymus repens (quackgrass, AGRRE). All glyphosate formulations were applied at both 0.84 and 1.68 kg a.e./ha (0.75 and 1.5 lb a.e./acre) in a spray volume of 20 gallons/acre (187 l/ha. Commercial Roundup herbicide was included as a standard. Simulated rain was applied in the amount of 6 mm over a period of 15 minutes, beginning 1 hour after glyphosate treatment. Data on percent inhibition without and with "rain" are presented in Table 6. Table 6

barley cv. Pennco = test: short-term whole plant assay, barley regrowth after glyphosate treatment and trimming (Examples 7-8); type: in vivo; settings: T/Am 5 0, S/Al 9 0 % w/v, 7 days after treatment
Text: In Examples 7 and 8, a short-term whole plant assay was used to evaluate relative efficacy of aqueous glyphosate compositions containing tallowamine 5EO and C11-15 secondary alcohol 9EO in different concentrations and proportions relative to one another.
Equal volumes of uniformly sized seeds (20-25 in number) of barley cv. Pennco were sown in a growing medium consisting of a 3:2:1 sand/soil/peat mixture in 4 inch square plastic pots. Pots were placed in a controlled environment growth chamber providing a 14 hour photoperiod, day and night temperatures of 78°F and 66°F respectively, and a relative humidity in the range from 30% to 50%. Light was provided by a combination of metal halide and sodium vapor lamps. All pots were bottom watered at 1200 hr on the first day, resulting in rapid saturation of the growing medium. Seedling emergence occurred on the third and fourth days. On the seventh day, all pots were fertilized by bottom watering with a Peters 20-20-20 fertilizer containing 475 ppm soluble nitrogen.
On the eighth day, pots were sorted into 6 replicate blocks according to plant size. Treatments, including no-treatment controls, were randomly assigned within each block, one treatment per pot.
Plants were treated with glyphosate compositions in rapid succession between 0830 hr and 0900 hr on the ninth day, when average plant height was 13-15 cm and the second leaf was just beginning to elongate. Compositions were applied using a calibrated single-nozzle track sprayer delivering 187 l/ha through a Teejet 8001E nozzle at 276 kilopascals. Plants were removed from the growth chamber immediately before treatment and returned to the same growth chamber immediately after treatment. Pots were spatially arranged in a randomized complete block experimental design. At 6 hours after treatment plants in all pots were trimmed by cutting to 20 mm above the top edge of the pot. This removed approximately 90% of the barley leaf area. Pots were bottom watered once daily for the remainder of the study. Data collection took place on the sixteenth day, 7 days after treatment.
Average height of barley regrowth in each pot was measured to the nearest 5 mm increment, from the earlier cutting height 20 mm above the edge of the pot. All plants in each pot were then cut at 20 mm above the edge of the pot and total fresh weight was recorded.
All compositions in this Example contained glyphosate as the isopropylamine salt at a concentration calculated to deliver 0.42 kg a.e./ha. Polyoxyethylene tallowamine 5EO (T/Am 5) concentration was varied independently of C11-15 secondary alcohol 9EO (S/Al 9) concentration as will be clear from the tables below. […]

[3] = cloud point of aqueous concentrate glyphosate formulations (Examples 2 and 3); type: physicochemical; settings: 31% glyphosate a.e. as isopropylamine salt
Procedure: Aqueous concentrate formulations of the isopropylamine salt of glyphosate were prepared at a glyphosate a.e. loading of 31% (equivalent to about 360 g a.e./liter). All contained 3.5% cocoamine quat 2EO. Secondary alcohol ethoxylates of the invention were included at a range of levels and cloud point of the formulation was determined. To measure cloud point, a sample of each formulation in a test tube was heated in a water bath until it became cloudy. The test tube was then removed from the water bath and the sample stirred with a thermometer until it became clear. The temperature at which the sample became clear was recorded as the cloud point of the formulation.
Aqueous concentrate formulations of the isopropylamine salt of glyphosate were prepared at the same glyphosate a.e. loading as in Example 2, but containing higher levels of cocoamine quat 2EO. Secondary alcohol ethoxylates of the invention were included at a range of levels and cloud point of the formulation was determined by the same procedure as in Example 2.

[4] = Rain 6 mm over 15 minutes, 1 hour after treatment
[5] = 0.84 kg a.e./ha, Rain 6 mm over 15 minutes, 1 hour after treatment
[6] = 1.68 kg a.e./ha, Rain 6 mm over 15 minutes, 1 hour after treatment
[7] = averaged over glyphosate 0.07, 0.14 and 0.28 kg a.e./ha
[8] = 4% secondary alcohol, 3.5% cocoamine quat 2EO
[9] = 5% secondary alcohol, 3.5% cocoamine quat 2EO
[10] = 5% secondary alcohol, 5% cocoamine quat 2EO
[11] = 6% secondary alcohol, 3.5% cocoamine quat 2EO
[12] = 6% secondary alcohol, 5% cocoamine quat 2EO
[13] = 7% secondary alcohol, 3.5% cocoamine quat 2EO
[14] = 7% secondary alcohol, 5% cocoamine quat 2EO
[15] = 8% secondary alcohol, 5% cocoamine quat 2EO

2,4,7,9-tetramethyl-5-decyne-4,7-diol 10EO [Adjuvant 2]
Percent inhibition of guineagrass 15 DAT ([1]; No rain): 98%
Percent inhibition of guineagrass 15 DAT [1, 4]: 94%
Percent inhibition of quackgrass 28 DAT ([2]; 0.84 kg a.e./ha, No rain): 94%
Percent inhibition of quackgrass 28 DAT [2, 5]: 78%
Percent inhibition of quackgrass 28 DAT ([2]; 1.68 kg a.e./ha, No rain): 98%
Percent inhibition of quackgrass 28 DAT [2, 6]: 94%

O=C(O)CNCP(=O)(O)O [glyphosate, N-phosphonomethylglycine]
Mean fresh weight of regrowth (barley cv. Pennco; [7]): 2.83 g
Mean height of regrowth (barley cv. Pennco; [7]): 171 mm
Mean fresh weight of regrowth (barley cv. Pennco; glyphosate 0.42 kg a.e./ha): 1.92 g
Mean height of regrowth (barley cv. Pennco; glyphosate 0.42 kg a.e./ha): 148 mm

C12 branched secondary alcohol 6EO [C12 branched 6EO]
Cloud points [3, 8]: >95 °C
Cloud points [3, 9]: >95 °C
Cloud points [3, 10]: >95 °C
Cloud points [3, 11]: <25 °C
Cloud points [3, 12]: <25 °C
Cloud points [3, 13]: <25 °C
Cloud points [3, 14]: <25 °C
Cloud points [3, 15]: <25 °C
Percent inhibition of guineagrass 15 DAT ([1]; No rain): 100%
Percent inhibition of guineagrass 15 DAT [1, 4]: 66%

C12 branched secondary alcohol 10EO [C12 branched 10EO]
Cloud points [3, 8]: >95 °C
Cloud points [3, 9]: 80 °C
Cloud points [3, 10]: 80 °C
Cloud points [3, 11]: 72 °C
Cloud points [3, 12]: 68 °C
Cloud points [3, 13]: 65 °C
Cloud points [3, 14]: 65 °C
Cloud points [3, 15]: 61 °C
Percent inhibition of guineagrass 15 DAT ([1]; No rain): 100%
Percent inhibition of guineagrass 15 DAT [1, 4]: 98%
Percent inhibition of quackgrass 28 DAT ([2]; 0.84 kg a.e./ha, No rain): 94%
Percent inhibition of quackgrass 28 DAT [2, 5]: 84%
Percent inhibition of quackgrass 28 DAT ([2]; 1.68 kg a.e./ha, No rain): 100%
Percent inhibition of quackgrass 28 DAT [2, 6]: 88%

nonylphenol 8EO
Percent inhibition of guineagrass 15 DAT ([1]; No rain): 100%
Percent inhibition of guineagrass 15 DAT [1, 4]: 97%
Percent inhibition of quackgrass 28 DAT ([2]; 0.84 kg a.e./ha, No rain): 97%
Percent inhibition of quackgrass 28 DAT [2, 5]: 83%
Percent inhibition of quackgrass 28 DAT ([2]; 1.68 kg a.e./ha, No rain): 98%
Percent inhibition of quackgrass 28 DAT [2, 6]: 79%

nonylphenol 10EO
Percent inhibition of guineagrass 15 DAT ([1]; No rain): 100%
Percent inhibition of guineagrass 15 DAT [1, 4]: 81%

nonylphenol 12EO
Percent inhibition of guineagrass 15 DAT ([1]; No rain): 100%
Percent inhibition of guineagrass 15 DAT [1, 4]: 63%
